PubChem BioAssay AID256 (DTP/NCI, 2004)
Values joined by “and” are separate entries in the source; they are usually repeats but may differ in a detail not shown here. Equal values may be shown once. Inconclusive results and toxic doses are left out.

Test system: CD2F1 mice, L1210 leukemia ip, survival T/C
Experiment: NCI In Vivo Anticancer Drug Screen. Data for tumor model L1210 Leukemia (intraperitoneal) in CD2F1 (CDF1) mice
Conditions: higher = longer survival
Summary of the method: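 In this screen, transplantable tumors were grown in mice given either the compound or its vehicle. Results were expressed as the treated measurement relative to the control measurement.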

[1] = endpoint: mean survival time, dose: 50.0 mg/kg/injection, schedule: Q01DX009 (ip), vehicle: saline
[2] = endpoint: mean survival time, dose: 100.0 mg/kg/injection, schedule: Q01DX009 (ip), vehicle: saline
[3] = endpoint: mean survival time, dose: 200.0 mg/kg/injection, schedule: Q01DX009 (ip), vehicle: saline
[4] = endpoint: mean survival time, dose: 100.0 mg/kg/injection, schedule: Q04DX002 (ip), vehicle: saline
[5] = endpoint: mean survival time, dose: 200.0 mg/kg/injection, schedule: Q04DX002 (ip), vehicle: saline
[6] = endpoint: mean survival time, dose: 100.0 mg/kg/injection, schedule: Q01DX009 (ip), vehicle: saline with Tween-80
[7] = endpoint: mean survival time, dose: 100.0 mg/kg/injection, schedule: Q04DX003 (ip), vehicle: saline with Tween-80
[8] = endpoint: mean survival time, dose: 200.0 mg/kg/injection, schedule: Q01DX009 (ip), vehicle: saline with Tween-80
[9] = endpoint: mean survival time, dose: 200.0 mg/kg/injection, schedule: Q04DX003 (ip), vehicle: saline with Tween-80
[10] = endpoint: mean survival time, dose: 400.0 mg/kg/injection, schedule: Q01DX009 (ip), vehicle: saline with Tween-80
[11] = endpoint: mean survival time, dose: 400.0 mg/kg/injection, schedule: Q04DX003 (ip), vehicle: saline with Tween-80
[12] = endpoint: mean survival time, dose: 100.0 mg/kg/injection, schedule: Q04DX002 (ip), vehicle: saline with Tween-80
[13] = endpoint: mean survival time, dose: 200.0 mg/kg/injection, schedule: Q04DX002 (ip), vehicle: saline with Tween-80
[14] = endpoint: mean survival time, dose: 400.0 mg/kg/injection, schedule: Q04DX002 (ip), vehicle: saline with Tween-80
[15] = endpoint: mean survival time, dose: 12.5 mg/kg/injection, schedule: Q01DX009 (ip), vehicle: saline with Tween-80
[16] = endpoint: mean survival time, dose: 25.0 mg/kg/injection, schedule: Q01DX009 (ip), vehicle: saline with Tween-80
[17] = endpoint: mean survival time, dose: 50.0 mg/kg/injection, schedule: Q01DX009 (ip), vehicle: saline with Tween-80
[18] = endpoint: mean survival time, dose: 100.0 mg/kg/injection, schedule: Q01DX001 (ip), vehicle: saline
[19] = endpoint: mean survival time, dose: 200.0 mg/kg/injection, schedule: Q01DX001 (ip), vehicle: saline

## C[n+]1ccccc1CCc1cccc[n+]1C
[1]
  T/C: 100 % of control
[2]
  T/C: 100 % of control
[3]
  T/C: 104 % of control

## O=C(O)C(O)c1ccccc1 (configuration not stated)
[4]
  T/C: 101 % of control
[5]
  T/C: 114 % of control

## NC(CCSCc1ccccc1)C(=O)O (configuration not stated)
[6]
  T/C: 91 % of control
[7]
  T/C: 98 % of control
[8]
  T/C: 91 % of control
[9]
  T/C: 93 % of control
[10]
  T/C: 91 % of control
[11]
  T/C: 95 % of control

## Nc1cc(Br)cc(Br)c1
[7]
  T/C: 94 % of control
[9]
  T/C: 105 % of control
[11]
  T/C: 94 % of control

## CC1=CC(S)NC(=S)N1 (configuration not stated)
[12]
  T/C: 103 % of control
[13]
  T/C: 95 % of control
[14]
  T/C: 106 % of control

## CN=NC(C)C
[8]
  T/C: 113 % of control

## Nc1ncc(C2OC(CO)C(O)C2O)c(=O)[nH]1 (configuration not stated)
endpoint: median survival time, dose: 64.0 mg/kg/injection, schedule: Q01DX005 (ip), vehicle: saline
  T/C: 160 % of control
endpoint: median survival time, dose: 128.0 mg/kg/injection, schedule: Q01DX005 (ip), vehicle: saline
  T/C: 162 % of control and 243 % of control
endpoint: median survival time, dose: 256.0 mg/kg/injection, schedule: Q01DX005 (ip), vehicle: saline
  T/C: 94 % of control

## O=C(CNC(=O)Nc1cccc(C(F)(F)F)c1)N/N=C/c1ccccc1Cl
[15]
  T/C: 87 % of control
[16]
  T/C: 87 % of control
[17]
  T/C: 87 % of control and 96 % of control
[6]
  T/C: 103 % of control
[8]
  T/C: 100 % of control

## Cc1ccc(S(=O)(=O)NC(=O)OC23COCN2COC3)cc1
[15]
  T/C: 96 % of control and 101 % of control
[16]
  T/C: 96 % of control and 102 % of control
[17]
  T/C: 97 % of control and 101 % of control
[6]
  T/C: 117 % of control and 102 % of control
[8]
  T/C: 113 % of control and 108 % of control
[10]
  T/C: 113 % of control and 105 % of control

## COC1C(O)C(C)OC(OC2C(Oc3cccc4c(O)c5c(=O)oc6ccc(C)c7c(=O)oc(c34)c5c67)OC(C)C(O)C2O)C1O (configuration not stated)
endpoint: mean survival time, dose: 5.0 mg/kg/injection, schedule: Q01DX009 (ip), vehicle: saline with Tween-80
  T/C: 116 % of control
endpoint: mean survival time, dose: 10.0 mg/kg/injection, schedule: Q01DX009 (ip), vehicle: saline with Tween-80
  T/C: 115 % of control
endpoint: mean survival time, dose: 20.0 mg/kg/injection, schedule: Q01DX009 (ip), vehicle: saline with Tween-80
  T/C: 116 % of control
endpoint: mean survival time, dose: 80.0 mg/kg/injection, schedule: Q01DX009 (ip), vehicle: saline with Tween-80
  T/C: 123 % of control

## CCOC(=O)NNC(=O)Nc1ccccc1F
[6]
  T/C: 104 % of control
[8]
  T/C: 88 % of control
[10]
  T/C: 94 % of control

## O=C(CCC1CC=CCC1)c1ccccc1 (configuration not stated)
endpoint: mean survival time, dose: 25.0 mg/kg/injection, schedule: Q04DX002 (ip), vehicle: saline with Tween-80
  T/C: 111 % of control
endpoint: mean survival time, dose: 50.0 mg/kg/injection, schedule: Q04DX002 (ip), vehicle: saline with Tween-80
  T/C: 96 % of control
[12]
  T/C: 90 % of control
[13]
  T/C: 93 % of control

## O=C(c1ccccc1)C1CCCCC1
[2]
  T/C: 88 % of control
[3]
  T/C: 97 % of control
endpoint: mean survival time, dose: 400.0 mg/kg/injection, schedule: Q01DX009 (ip), vehicle: saline
  T/C: 92 % of control

## CN(C)/N=C(\CBr)c1ccc([N+](=O)[O-])cc1
[18]
  T/C: 100 % of control
[19]
  T/C: 94 % of control

## NC(=S)NNc1ccccn1
endpoint: mean survival time, dose: 25.0 mg/kg/injection, schedule: Q04DX002 (ip), vehicle: saline
  T/C: 106 % of control
endpoint: mean survival time, dose: 50.0 mg/kg/injection, schedule: Q04DX002 (ip), vehicle: saline
  T/C: 108 % of control

## CN1CCN(CC(=O)N2c3ccccc3Sc3cc4ccccc4cc32)CC1
endpoint: mean survival time, dose: 75.0 mg/kg/injection, schedule: Q01DX001 (ip), vehicle: saline
  T/C: 101 % of control
endpoint: mean survival time, dose: 150.0 mg/kg/injection, schedule: Q01DX001 (ip), vehicle: saline
  T/C: 108 % of control
endpoint: mean survival time, dose: 300.0 mg/kg/injection, schedule: Q01DX001 (ip), vehicle: saline
  T/C: 96 % of control

## C[N+](C)(C)c1cccc(S)c1
[12]
  T/C: 104 % of control
[13]
  T/C: 112 % of control
[14]
  T/C: 100 % of control

## O=C1OC(c2ccccc2)(C2(c3ccccc3)OC(=O)c3ccccc32)c2ccccc21 (configuration not stated)
[7]
  T/C: 89 % of control

## COC(=O)/C=C/c1ccc(OC(=O)c2ccccc2)cc1
[6]
  T/C: 95 % of control
[8]
  T/C: 96 % of control
[10]
  T/C: 98 % of control

## CC(=O)OCCN1CCN(CCCN2c3ccccc3Sc3ccc(C(F)(F)F)cc32)CC1
endpoint: mean survival time, dose: 2.6 mg/kg/injection, schedule: Q03HX024 (ip), vehicle: saline
  T/C: 108 % of control
endpoint: mean survival time, dose: 4.0 mg/kg/injection, schedule: Q03HX024 (ip), vehicle: saline
  T/C: 104 % of control
endpoint: mean survival time, dose: 6.0 mg/kg/injection, schedule: Q03HX024 (ip), vehicle: saline
  T/C: 121 % of control
endpoint: mean survival time, dose: 12.5 mg/kg/injection, schedule: Q01DX001 (ip), vehicle: saline
  T/C: 118 % of control and 105 % of control
endpoint: mean survival time, dose: 12.5 mg/kg/injection, schedule: Q01DX009 (ip), vehicle: saline
  T/C: 100 % of control
endpoint: mean survival time, dose: 25.0 mg/kg/injection, schedule: Q01DX001 (ip), vehicle: saline
  T/C: 117 % of control and 118 % of control
endpoint: mean survival time, dose: 25.0 mg/kg/injection, schedule: Q01DX009 (ip), vehicle: saline
  T/C: 95 % of control
endpoint: mean survival time, dose: 50.0 mg/kg/injection, schedule: Q01DX001 (ip), vehicle: saline
  T/C: 114 % of control
[1]
  T/C: 89 % of control
[18]
  T/C: 109 % of control

## CC(C)(CCC(=O)O)c1ccc(O)cc1
endpoint: mean survival time, dose: 100.0 mg/kg/injection, schedule: Q04DX003 (ip), vehicle: saline
  T/C: 101 % of control
endpoint: mean survival time, dose: 200.0 mg/kg/injection, schedule: Q04DX003 (ip), vehicle: saline
  T/C: 103 % of control
endpoint: mean survival time, dose: 400.0 mg/kg/injection, schedule: Q04DX003 (ip), vehicle: saline
  T/C: 103 % of control

## O=C1C(n2ccc(=O)n(C(=O)c3ccccc3)c2=O)CCN1CCO (configuration not stated)
[18]
  T/C: 102 % of control
[19]
  T/C: 100 % of control
endpoint: mean survival time, dose: 400.0 mg/kg/injection, schedule: Q01DX001 (ip), vehicle: saline
  T/C: 102 % of control

## COC(=O)c1ccc(NC(=O)Cc2c(O)c3c(c(C)c2OC)COC3=O)cc1N
[4]
  T/C: 100 % of control
[5]
  T/C: 112 % of control
endpoint: median survival time, dose: 100.0 mg/kg/injection, schedule: Q04DX002 (ip), vehicle: saline
  T/C: 102 % of control
endpoint: median survival time, dose: 200.0 mg/kg/injection, schedule: Q04DX002 (ip), vehicle: saline
  T/C: 106 % of control

## c1ccc(C2=NNC(c3ccccc3)=NN2)cc1
endpoint: mean survival time, dose: 100.0 mg/kg/injection, schedule: Q01DX001 (ip), vehicle: other
  T/C: 105 % of control
endpoint: mean survival time, dose: 100.0 mg/kg/injection, schedule: Q01DX001 (ip), vehicle: saline with Tween-80
  T/C: 101 % of control
endpoint: mean survival time, dose: 200.0 mg/kg/injection, schedule: Q01DX001 (ip), vehicle: other
  T/C: 94 % of control
endpoint: mean survival time, dose: 200.0 mg/kg/injection, schedule: Q01DX001 (ip), vehicle: saline with Tween-80
  T/C: 97 % of control
endpoint: mean survival time, dose: 400.0 mg/kg/injection, schedule: Q01DX001 (ip), vehicle: other
  T/C: 103 % of control
endpoint: mean survival time, dose: 400.0 mg/kg/injection, schedule: Q01DX001 (ip), vehicle: saline with Tween-80
  T/C: 103 % of control

## CC(C)(Br)C(=O)c1ccco1
endpoint: mean survival time, dose: 100.0 mg/kg/injection, schedule: Q04DX003 (ip), vehicle: saline sonified
  T/C: 101 % of control
endpoint: mean survival time, dose: 200.0 mg/kg/injection, schedule: Q04DX003 (ip), vehicle: saline sonified
  T/C: 102 % of control
endpoint: mean survival time, dose: 400.0 mg/kg/injection, schedule: Q04DX003 (ip), vehicle: saline sonified
  T/C: 95 % of control

## COC(=O)c1ccccc1C=C(c1ccc([N+](=O)[O-])cc1)c1ccc([N+](=O)[O-])cc1
[6]
  T/C: 93 % of control
[7]
  T/C: 94 % of control
[8]
  T/C: 93 % of control
[9]
  T/C: 96 % of control
[11]
  T/C: 88 % of control

## Clc1ccc(/C=N/N=C/c2ccc(Cl)cc2Cl)c(Cl)c1
endpoint: mean survival time, dose: 100.0 mg/kg/injection, schedule: Q01DX001 (ip), vehicle: Klucel (hydroxypropylcellulose) (HPC)
  T/C: 95 % of control
endpoint: mean survival time, dose: 200.0 mg/kg/injection, schedule: Q01DX001 (ip), vehicle: Klucel (hydroxypropylcellulose) (HPC)
  T/C: 89 % of control
endpoint: mean survival time, dose: 400.0 mg/kg/injection, schedule: Q01DX001 (ip), vehicle: Klucel (hydroxypropylcellulose) (HPC)
  T/C: 103 % of control

## CNc1nc(-c2ccncc2)nc(N(C)C)n1
[12]
  T/C: 96 % of control
[13]
  T/C: 88 % of control

## Cc1ccc(/C(C#N)=C2C=C(Br)/C(=N\O)C=C/2Cl)cc1
endpoint: mean survival time, dose: 25.0 mg/kg/injection, schedule: Q01DX009 (ip), vehicle: acetone
  T/C: 96 % of control
endpoint: mean survival time, dose: 50.0 mg/kg/injection, schedule: Q01DX009 (ip), vehicle: acetone
  T/C: 98 % of control
endpoint: mean survival time, dose: 100.0 mg/kg/injection, schedule: Q01DX009 (ip), vehicle: acetone
  T/C: 98 % of control
